Data published in patent publication US11208412B2 (DAEGU-GYEONGBUK MEDICAL INNOVATION FOUNDATION, priority 2017, dated 2021).
Where two headings read alike, the source gives them in different places.

Columns and labels:
Assay in all cases: Kinase selectivity, DiscoverX scanMAX Kinase assay panel (% control)
Format in all cases: binding
[1] = target: T1, kinases of the scanMAX Kinase assay panel (Homo sapiens, UniProt O14920); conditions: IKK-beta; 1 uM
T1 construct: purchased DiscoverX Co. (contract measurement) scanMAX Kinase assay panel
T1 sequence (O14920 1-756): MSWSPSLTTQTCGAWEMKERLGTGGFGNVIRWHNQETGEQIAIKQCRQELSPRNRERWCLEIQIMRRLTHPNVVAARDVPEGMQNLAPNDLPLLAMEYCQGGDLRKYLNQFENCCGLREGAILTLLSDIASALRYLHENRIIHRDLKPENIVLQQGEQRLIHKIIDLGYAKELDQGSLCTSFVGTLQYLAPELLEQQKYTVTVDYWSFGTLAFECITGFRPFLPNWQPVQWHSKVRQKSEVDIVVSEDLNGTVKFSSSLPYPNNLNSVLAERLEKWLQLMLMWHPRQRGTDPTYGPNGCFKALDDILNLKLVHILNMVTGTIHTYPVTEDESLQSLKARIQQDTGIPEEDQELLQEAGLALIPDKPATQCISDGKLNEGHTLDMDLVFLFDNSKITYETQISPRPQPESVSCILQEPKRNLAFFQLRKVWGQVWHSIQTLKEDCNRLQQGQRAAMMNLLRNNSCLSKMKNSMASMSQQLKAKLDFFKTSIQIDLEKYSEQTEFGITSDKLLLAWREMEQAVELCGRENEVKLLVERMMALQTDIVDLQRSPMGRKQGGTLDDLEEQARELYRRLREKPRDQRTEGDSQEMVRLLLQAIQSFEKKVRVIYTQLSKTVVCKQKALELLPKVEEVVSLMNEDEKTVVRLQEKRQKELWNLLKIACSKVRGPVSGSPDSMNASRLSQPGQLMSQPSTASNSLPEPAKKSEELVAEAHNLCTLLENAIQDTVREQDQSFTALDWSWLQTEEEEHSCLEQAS
How it was run: (§1)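 Percent of control computed as (compound − positive control)/(negative control − positive control) × 100, DMSO defining 100% and positive control 0%. Each panel kinase exposed to 1 uM compound; values under 35% taken to mean the compound acts on that kinase.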

[2] = target: T2, kinases of the scanMAX Kinase assay panel (Homo sapiens, UniProt Q9NSY1); conditions: BIKE; 1 uM
T2 construct: purchased DiscoverX Co. (contract measurement) scanMAX Kinase assay panel
How it was run: as §1

[3] = target: T3, kinases of the scanMAX Kinase assay panel (Homo sapiens, UniProt Q86V86); conditions: PIM3; 1 uM
T3 construct: purchased DiscoverX Co. (contract measurement) scanMAX Kinase assay panel
How it was run: as §1

[4] = target: T4, kinases of the scanMAX Kinase assay panel (Homo sapiens, UniProt Q15831); conditions: LKB1; 1 uM
T4 construct: purchased DiscoverX Co. (contract measurement) scanMAX Kinase assay panel
T4 sequence (Q15831 1-433): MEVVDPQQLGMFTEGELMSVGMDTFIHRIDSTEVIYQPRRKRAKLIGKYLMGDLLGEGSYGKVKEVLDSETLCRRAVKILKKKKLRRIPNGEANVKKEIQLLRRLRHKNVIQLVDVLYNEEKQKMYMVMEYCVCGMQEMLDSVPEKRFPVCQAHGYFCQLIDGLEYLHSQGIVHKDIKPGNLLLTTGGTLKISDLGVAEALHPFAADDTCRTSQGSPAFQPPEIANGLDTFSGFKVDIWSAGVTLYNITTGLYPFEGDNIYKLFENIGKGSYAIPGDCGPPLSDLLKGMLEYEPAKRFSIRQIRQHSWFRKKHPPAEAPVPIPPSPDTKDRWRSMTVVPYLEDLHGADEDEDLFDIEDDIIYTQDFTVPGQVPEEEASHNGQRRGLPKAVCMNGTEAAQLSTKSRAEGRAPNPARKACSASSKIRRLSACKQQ
How it was run: as §1

[5] = target: T5, kinases of the scanMAX Kinase assay panel (Homo sapiens, UniProt P49841); conditions: GSK3B; 1 uM
T5 construct: purchased DiscoverX Co. (contract measurement) scanMAX Kinase assay panel
How it was run: as §1

[6] = target: T6, kinases of the scanMAX Kinase assay panel (Homo sapiens, UniProt P42345); conditions: MTOR; 1 uM
T6 construct: purchased DiscoverX Co. (contract measurement) scanMAX Kinase assay panel
How it was run: as §1

[7] = target: T7, kinases of the scanMAX Kinase assay panel (Homo sapiens, UniProt Q9NY57); conditions: kinase YANK2; 1 uM in DMSO
T7 construct: purchased DiscoverX Co. (contract measurement) scanMAX Kinase assay panel
How it was run: as §1

[8] = target: T8, kinases of the scanMAX Kinase assay panel (Homo sapiens, UniProt P51451); conditions: BLK; 1 uM
T8 construct: purchased DiscoverX Co. (contract measurement) scanMAX Kinase assay panel
How it was run: as §1

[9] = target: T9, kinases of the scanMAX Kinase assay panel (Homo sapiens, UniProt Q9UPZ9); conditions: ICK; 1 uM
T9 construct: purchased DiscoverX Co. (contract measurement) scanMAX Kinase assay panel
T9 sequence (Q9UPZ9 1-632): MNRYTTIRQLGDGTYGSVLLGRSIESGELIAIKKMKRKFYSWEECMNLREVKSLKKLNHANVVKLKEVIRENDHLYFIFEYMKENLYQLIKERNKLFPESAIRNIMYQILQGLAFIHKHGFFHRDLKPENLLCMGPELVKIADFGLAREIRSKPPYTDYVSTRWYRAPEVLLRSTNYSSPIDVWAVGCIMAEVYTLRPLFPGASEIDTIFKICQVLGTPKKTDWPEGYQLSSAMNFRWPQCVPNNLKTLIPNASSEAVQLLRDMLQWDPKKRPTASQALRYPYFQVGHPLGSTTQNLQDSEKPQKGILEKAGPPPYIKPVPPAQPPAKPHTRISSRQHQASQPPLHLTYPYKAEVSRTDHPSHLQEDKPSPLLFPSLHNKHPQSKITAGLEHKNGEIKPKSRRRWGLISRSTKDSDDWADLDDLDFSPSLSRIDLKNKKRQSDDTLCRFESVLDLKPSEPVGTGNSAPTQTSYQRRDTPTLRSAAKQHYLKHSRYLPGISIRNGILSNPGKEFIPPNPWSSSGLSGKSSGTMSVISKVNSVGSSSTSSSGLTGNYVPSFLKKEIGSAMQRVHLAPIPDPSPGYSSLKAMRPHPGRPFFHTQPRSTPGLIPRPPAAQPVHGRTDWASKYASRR
How it was run: as §1

[10] = target: T10, kinases of the scanMAX Kinase assay panel (Homo sapiens, UniProt P00519); conditions: 1 uM
T10 construct: purchased DiscoverX Co. (contract measurement) scanMAX Kinase assay panel
How it was run: as §1

[11] = target: T11, kinases of the scanMAX Kinase assay panel (Homo sapiens, UniProt O75582); conditions: 1 uM in DMSO
T11 construct: purchased DiscoverX Co. (contract measurement) scanMAX Kinase assay panel
How it was run: as §1

[12] = kinase RPS6KA5(Kin.Dom.1-N-terminal), read-out: % control, RPS6KA5(Kin.Dom.1-N-terminal)
[13] = kinase RPS6KA5(Kin.Dom.2-C-terminal), read-out: % control, RPS6KA5(Kin.Dom.2-C-terminal)

T5 sequence (P49841 whole entry): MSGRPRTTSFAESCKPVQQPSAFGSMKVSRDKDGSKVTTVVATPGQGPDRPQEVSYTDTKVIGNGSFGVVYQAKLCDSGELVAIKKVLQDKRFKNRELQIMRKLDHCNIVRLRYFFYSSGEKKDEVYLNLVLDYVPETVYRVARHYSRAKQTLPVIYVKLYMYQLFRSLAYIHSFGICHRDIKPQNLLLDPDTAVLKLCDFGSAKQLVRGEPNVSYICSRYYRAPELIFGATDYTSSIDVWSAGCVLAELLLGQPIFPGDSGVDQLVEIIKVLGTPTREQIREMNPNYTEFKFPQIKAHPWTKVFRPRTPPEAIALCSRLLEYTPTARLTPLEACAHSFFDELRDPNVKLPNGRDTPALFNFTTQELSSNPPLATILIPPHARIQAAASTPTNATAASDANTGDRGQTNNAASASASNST
T10 sequence (P00519 whole entry): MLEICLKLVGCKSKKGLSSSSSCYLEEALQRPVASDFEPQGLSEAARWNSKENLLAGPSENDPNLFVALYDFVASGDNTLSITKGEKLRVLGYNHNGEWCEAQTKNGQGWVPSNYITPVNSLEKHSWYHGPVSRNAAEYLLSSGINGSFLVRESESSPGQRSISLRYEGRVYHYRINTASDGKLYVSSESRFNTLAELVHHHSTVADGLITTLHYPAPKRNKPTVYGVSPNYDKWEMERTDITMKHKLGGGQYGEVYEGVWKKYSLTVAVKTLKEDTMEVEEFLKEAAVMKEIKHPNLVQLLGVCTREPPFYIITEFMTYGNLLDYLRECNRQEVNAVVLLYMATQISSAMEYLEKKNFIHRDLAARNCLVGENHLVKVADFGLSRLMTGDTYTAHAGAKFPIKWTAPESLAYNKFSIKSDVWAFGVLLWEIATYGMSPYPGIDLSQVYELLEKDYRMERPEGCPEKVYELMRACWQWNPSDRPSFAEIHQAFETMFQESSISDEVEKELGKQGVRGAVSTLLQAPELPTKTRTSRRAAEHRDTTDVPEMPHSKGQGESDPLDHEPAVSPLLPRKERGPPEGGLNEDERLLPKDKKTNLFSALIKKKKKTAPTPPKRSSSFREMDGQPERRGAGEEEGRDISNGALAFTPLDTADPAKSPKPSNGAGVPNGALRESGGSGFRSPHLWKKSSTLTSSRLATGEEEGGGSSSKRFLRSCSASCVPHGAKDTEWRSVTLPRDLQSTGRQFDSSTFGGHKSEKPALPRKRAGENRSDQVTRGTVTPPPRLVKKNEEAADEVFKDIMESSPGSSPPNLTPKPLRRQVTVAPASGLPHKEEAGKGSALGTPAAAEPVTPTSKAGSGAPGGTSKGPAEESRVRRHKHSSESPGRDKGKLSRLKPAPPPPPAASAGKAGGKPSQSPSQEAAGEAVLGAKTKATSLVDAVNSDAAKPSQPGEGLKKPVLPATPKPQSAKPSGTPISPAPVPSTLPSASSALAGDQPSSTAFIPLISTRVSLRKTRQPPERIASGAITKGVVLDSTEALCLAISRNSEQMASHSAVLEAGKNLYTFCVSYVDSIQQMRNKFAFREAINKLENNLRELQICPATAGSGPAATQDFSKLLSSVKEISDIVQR
T8 sequence (P51451 whole entry): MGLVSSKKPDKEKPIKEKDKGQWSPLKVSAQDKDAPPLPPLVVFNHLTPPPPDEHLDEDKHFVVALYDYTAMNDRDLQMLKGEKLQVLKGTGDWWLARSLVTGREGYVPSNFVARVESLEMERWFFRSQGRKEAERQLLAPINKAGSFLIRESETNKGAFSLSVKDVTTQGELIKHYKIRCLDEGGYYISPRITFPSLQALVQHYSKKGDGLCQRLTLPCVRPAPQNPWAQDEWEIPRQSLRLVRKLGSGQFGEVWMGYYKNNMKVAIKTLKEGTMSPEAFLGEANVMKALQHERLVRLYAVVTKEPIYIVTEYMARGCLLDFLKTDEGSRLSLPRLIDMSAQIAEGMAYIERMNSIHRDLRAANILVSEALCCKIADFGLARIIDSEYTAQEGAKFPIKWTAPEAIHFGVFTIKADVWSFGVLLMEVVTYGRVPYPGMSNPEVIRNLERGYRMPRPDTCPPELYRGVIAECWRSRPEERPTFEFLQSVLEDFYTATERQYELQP
T7 sequence (Q9NY57 whole entry): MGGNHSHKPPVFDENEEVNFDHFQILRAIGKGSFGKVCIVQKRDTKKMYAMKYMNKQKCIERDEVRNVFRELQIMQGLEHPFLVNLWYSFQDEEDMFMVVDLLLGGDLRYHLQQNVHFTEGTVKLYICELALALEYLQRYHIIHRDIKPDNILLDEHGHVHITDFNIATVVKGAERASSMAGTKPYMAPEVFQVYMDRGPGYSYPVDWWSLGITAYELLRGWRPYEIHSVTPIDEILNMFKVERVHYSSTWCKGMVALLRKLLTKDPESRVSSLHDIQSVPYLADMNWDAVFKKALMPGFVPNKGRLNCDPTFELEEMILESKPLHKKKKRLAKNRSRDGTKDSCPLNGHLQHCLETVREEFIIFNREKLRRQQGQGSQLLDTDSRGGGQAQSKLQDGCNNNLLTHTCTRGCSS
T2 sequence (Q9NSY1 whole entry): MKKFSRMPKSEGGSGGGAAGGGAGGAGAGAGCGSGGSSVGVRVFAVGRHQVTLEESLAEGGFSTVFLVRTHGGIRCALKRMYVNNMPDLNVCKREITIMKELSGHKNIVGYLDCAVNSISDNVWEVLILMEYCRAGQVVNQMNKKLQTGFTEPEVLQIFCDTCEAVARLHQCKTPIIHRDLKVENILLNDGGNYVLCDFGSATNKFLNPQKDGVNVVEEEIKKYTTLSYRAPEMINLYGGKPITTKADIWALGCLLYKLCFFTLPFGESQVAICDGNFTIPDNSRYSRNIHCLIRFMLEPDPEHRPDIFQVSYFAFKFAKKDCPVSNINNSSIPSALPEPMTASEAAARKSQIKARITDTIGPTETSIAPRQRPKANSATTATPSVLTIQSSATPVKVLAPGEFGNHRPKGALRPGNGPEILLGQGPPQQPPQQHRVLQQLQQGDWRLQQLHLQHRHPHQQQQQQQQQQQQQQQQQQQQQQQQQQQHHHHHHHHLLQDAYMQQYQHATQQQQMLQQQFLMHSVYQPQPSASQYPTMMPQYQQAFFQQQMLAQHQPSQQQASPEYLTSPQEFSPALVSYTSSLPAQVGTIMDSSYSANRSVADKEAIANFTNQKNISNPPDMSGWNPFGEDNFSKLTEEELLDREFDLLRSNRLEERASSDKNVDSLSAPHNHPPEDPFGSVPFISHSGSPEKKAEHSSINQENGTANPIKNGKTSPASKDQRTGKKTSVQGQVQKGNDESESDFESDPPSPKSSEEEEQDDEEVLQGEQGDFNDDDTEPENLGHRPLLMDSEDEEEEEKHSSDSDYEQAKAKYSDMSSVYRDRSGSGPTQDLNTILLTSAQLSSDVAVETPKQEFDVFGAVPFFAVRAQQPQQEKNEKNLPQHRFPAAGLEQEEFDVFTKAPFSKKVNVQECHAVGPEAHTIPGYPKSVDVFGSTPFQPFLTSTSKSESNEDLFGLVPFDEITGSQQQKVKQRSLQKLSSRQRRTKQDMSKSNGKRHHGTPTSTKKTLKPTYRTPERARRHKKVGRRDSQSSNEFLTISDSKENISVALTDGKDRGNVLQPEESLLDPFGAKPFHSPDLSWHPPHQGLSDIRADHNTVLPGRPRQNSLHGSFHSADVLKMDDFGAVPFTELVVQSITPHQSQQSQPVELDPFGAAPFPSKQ
T11 sequence (O75582 whole entry): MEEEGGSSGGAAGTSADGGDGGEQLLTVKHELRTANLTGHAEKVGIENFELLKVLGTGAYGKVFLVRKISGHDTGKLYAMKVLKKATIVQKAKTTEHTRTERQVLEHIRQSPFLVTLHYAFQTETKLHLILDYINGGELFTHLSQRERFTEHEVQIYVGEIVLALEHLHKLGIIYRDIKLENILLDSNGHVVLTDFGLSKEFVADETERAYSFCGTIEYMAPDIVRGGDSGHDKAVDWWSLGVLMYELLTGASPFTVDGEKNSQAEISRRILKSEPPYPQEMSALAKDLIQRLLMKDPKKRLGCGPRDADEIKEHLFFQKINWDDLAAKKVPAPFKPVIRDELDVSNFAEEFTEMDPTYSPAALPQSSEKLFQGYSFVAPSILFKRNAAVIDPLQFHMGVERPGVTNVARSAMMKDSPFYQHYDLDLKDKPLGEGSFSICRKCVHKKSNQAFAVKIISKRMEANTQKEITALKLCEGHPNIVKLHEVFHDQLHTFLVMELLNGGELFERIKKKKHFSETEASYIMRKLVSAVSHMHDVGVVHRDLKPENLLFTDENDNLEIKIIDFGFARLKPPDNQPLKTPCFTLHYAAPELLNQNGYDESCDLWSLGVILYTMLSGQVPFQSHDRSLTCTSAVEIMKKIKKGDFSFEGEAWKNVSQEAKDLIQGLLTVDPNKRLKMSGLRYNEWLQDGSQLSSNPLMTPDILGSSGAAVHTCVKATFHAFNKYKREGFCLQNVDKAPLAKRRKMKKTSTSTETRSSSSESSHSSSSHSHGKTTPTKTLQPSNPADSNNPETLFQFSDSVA

Row | Compound | remaining binding at 1 µM [1] [%] | remaining binding at 1 µM [2] [%] | remaining binding at 1 µM [3] [%] | remaining binding at 1 µM [4] [%] | remaining binding at 1 µM [5] [%] | remaining binding at 1 µM [6] [%] | remaining binding at 1 µM [7] [%] | remaining binding at 1 µM [8] [%] | remaining binding at 1 µM [9] [%] | remaining binding at 1 µM ([10]; ABL1-nonphosphorylated) [%] | remaining binding at 1 µM ([10]; ABL1-phosphorylated) [%] | remaining binding at 1 µM [11, 12] [%] | remaining binding at 1 µM [11, 13] [%]
1 | CCNc1nc(Nc2ccc(C(=O)N3CCC(N4CCOCC4)CC3)cc2OC)nc2[nH]cc(C(F)(F)F)c12 [Example 104, (4-((4-(ethylamino)-5-(trifluoromethyl)-7H-pyrrolo[2,3-d]pyrimidine-2-yl)amino)-3-methoxyphenyl)(4-morpholinopiperidine-1-yl)methanone] | 92 | 100 | 73 | 87 | 83 | 100 | 100 | 100 | 96 | 91 | 63 | 100 | 83
2 | CNc1nc(Nc2ccc(C(=O)N3CCOCC3)cc2OC)nc2[nH]cc(C#N)c12 [Example 1, 2-((2-methoxy-4-(morpholine-4-carbonyl)phenyl)amino)-4-(methylamino)-7H-pyrrolo[2,3-d]pyrimidine-5-carbonitrile] | 75 | 62 | 98 | 91 | 79 | 100 | 85 | 100 | 73 | 92 | 88 | 94 | 12
3 | CC1(Nc2nc(Nc3cnn([C@H]4CCN(C5COC5)C[C@@H]4F)c3Cl)nc3[nH]cc(C#N)c23)CC1 [Example 52, 2-((5-chloro-1-((3S,4S)-3-fluoro-1-(oxetane-3-yl)piperidine-4-yl)-1H-pyrazole-4-yl)amino)((1-methylcyclopropyl)amino)-7H-pyrrolo[2,3-d]pyrimidine-5-carbonitrile] | 9.7 | 0 | 49 | 31 | 50 | 66 | 100 | 2.2 | 71 | 6.4 | 1.8 | 100 | 24
